In ChEMBL document CHEMBL4431388, “Molecular docking studies and synthesis of novel bisbenzimidazole derivatives as inhibitors of α-glucosidase” (Bioorg Med Chem, 2016):

Columns and labels:
Saccharomyces cerevisiae = experiment: Inhibition of baker's yeast alpha-glucosidase at 300 uM using p-nitrophenyl alpha-D-glucopyranoside as substrate preincubated for 15 mins followed by substrate addition measured for 20 mins by spectrophotometric analysis relative to control
[1] = Inhibition of baker's yeast alpha-glucosidase using p-nitrophenyl alpha-D-glucopyranoside as substrate preincubated for 15 mins followed by substrate addition measured for 20 mins by spectrophotometric analysis; set-up: species or system Saccharomyces cerevisiae

Row | inhibition (Saccharomyces cerevisiae) [%] | IC50 [1] [nM] | SMILES
1 | 23.2 | – | O=C(Cn1c(-c2nc3ccccc3n2CC(=O)NNC(=S)NCc2ccccc2)nc2ccccc21)NNC(=S)NCc1ccccc1
2 | 100 | 490 | O=C(Cn1c(-c2nc3ccc([N+](=O)[O-])cc3n2CC(=O)NNC(=S)NCc2ccccc2)nc2ccc([N+](=O)[O-])cc21)NNC(=S)NCc1ccccc1
3 | 42.7 | – | c1ccc(Nc2nnc(Cn3c(-c4nc5ccccc5n4Cc4nnc(Nc5ccccc5)s4)nc4ccccc43)s2)cc1
4 | 45.8 | – | NNC(=O)Cn1c(-c2nc3ccccc3n2CC(=O)NN)nc2ccccc21
5 | 39.6 | – | O=C(Cn1c(-c2nc3ccccc3n2CC(=O)NNC(=S)Nc2ccccc2)nc2ccccc21)NNC(=S)Nc1ccccc1
6 | 100 | 1240 | O=C(Cn1c(-c2nc3ccc([N+](=O)[O-])cc3n2CC(=O)NNC(=S)Nc2ccccc2)nc2ccc([N+](=O)[O-])cc21)NNC(=S)Nc1ccccc1
7 | 100 | 3010 | Sc1nnc(Cn2c(-c3nc4ccccc4n3Cc3nnc(S)n3-c3ccccc3)nc3ccccc32)n1-c1ccccc1

The remaining lines, values behind:

Row | SMILES | inhibition (Saccharomyces cerevisiae) [%] | IC50 [1] [nM]
8 | O=[N+]([O-])c1ccc2nc(-c3nc4ccc([N+](=O)[O-])cc4n3Cc3nnc(S)n3Cc3ccccc3)n(Cc3nnc(S)n3Cc3ccccc3)c2c1 | 35.8 | –
9 | NNC(=O)Cn1c(-c2nc3ccc([N+](=O)[O-])cc3n2CC(=O)NN)nc2ccc([N+](=O)[O-])cc21 | 100 | 440
10 | C[C@H]1O[C@H](O[C@H]2[C@H](O)[C@@H](O)[C@@H](O[C@H]3[C@H](O)[C@@H](O)C(O)O[C@@H]3CO)O[C@@H]2CO)[C@H](O)[C@@H](O)[C@@H]1N[C@H]1C=C(CO)[C@@H](O)[C@H](O)[C@H]1O (stereo partly drawn) [ACARBOSE] | 83.3 | 13300
11 | O=[N+]([O-])c1ccc2nc(-c3nc4ccc([N+](=O)[O-])cc4n3Cc3nnc(Nc4ccccc4)s3)n(Cc3nnc(Nc4ccccc4)s3)c2c1 | 89.1 | 5270
12 | O=[N+]([O-])c1ccc2nc(-c3nc4ccc([N+](=O)[O-])cc4[nH]3)[nH]c2c1 | 100 | 540
13 | O=[N+]([O-])c1ccc2nc(-c3nc4ccc([N+](=O)[O-])cc4n3Cc3nnc(S)n3-c3ccccc3)n(Cc3nnc(S)n3-c3ccccc3)c2c1 | 23.7 | –
14 | O=[N+]([O-])c1ccc2nc(-c3nc4ccc([N+](=O)[O-])cc4n3Cc3nnc(NCc4ccccc4)s3)n(Cc3nnc(NCc4ccccc4)s3)c2c1 | 48.4 | –
15 | CCOC(=O)Cn1c(-c2nc3ccc([N+](=O)[O-])cc3n2CC(=O)OCC)nc2ccc([N+](=O)[O-])cc21 | 85.8 | 6690
